{
  "source": "patent US20100130512A1",
  "about": "“FUSED-RING H[…]” (RENSSELAER POLYTECHNIC INSTITUTE, priority 2007, published 2010)",
  "key": {"[1]": {"target": "T1, human opioid receptor (δ) (Homo sapiens, UniProt P41143)", "T1 construct": "expressed in transfected cells", "T1 sequence (P41143 whole entry)": "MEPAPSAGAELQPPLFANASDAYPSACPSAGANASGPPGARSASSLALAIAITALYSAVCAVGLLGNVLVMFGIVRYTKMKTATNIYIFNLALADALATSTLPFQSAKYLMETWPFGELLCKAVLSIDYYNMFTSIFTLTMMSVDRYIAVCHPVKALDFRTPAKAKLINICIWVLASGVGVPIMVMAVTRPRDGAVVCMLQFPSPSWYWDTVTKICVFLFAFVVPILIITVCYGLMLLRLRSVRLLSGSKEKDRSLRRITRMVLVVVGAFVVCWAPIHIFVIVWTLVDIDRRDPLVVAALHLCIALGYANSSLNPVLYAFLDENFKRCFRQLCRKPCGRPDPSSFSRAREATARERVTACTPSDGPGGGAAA", "assay": "Opioid receptor binding, [3H]naltrindole (δ)"}, "[2]": {"target": "T2, human opioid receptor (κ) (Homo sapiens, UniProt P41145)", "T2 construct": "expressed in transfected cells", "T2 sequence (P41145 whole entry)": "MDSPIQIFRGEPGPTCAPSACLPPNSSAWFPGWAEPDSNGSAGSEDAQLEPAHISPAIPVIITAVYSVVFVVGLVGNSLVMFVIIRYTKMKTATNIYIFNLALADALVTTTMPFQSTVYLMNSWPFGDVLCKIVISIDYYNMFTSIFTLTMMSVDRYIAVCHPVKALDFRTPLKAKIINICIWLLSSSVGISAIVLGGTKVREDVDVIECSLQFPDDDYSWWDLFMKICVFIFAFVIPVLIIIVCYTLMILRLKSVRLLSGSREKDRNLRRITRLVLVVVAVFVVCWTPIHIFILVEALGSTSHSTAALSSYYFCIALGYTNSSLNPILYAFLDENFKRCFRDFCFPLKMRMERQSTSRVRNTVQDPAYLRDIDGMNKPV", "assay": "Opioid receptor binding, [3H]U69,593 (κ)"}, "[3]": {"target": "T3, human opioid receptor (μ) (Homo sapiens, UniProt P35372)", "T3 construct": "expressed in transfected cells", "T3 sequence (P35372 whole entry)": "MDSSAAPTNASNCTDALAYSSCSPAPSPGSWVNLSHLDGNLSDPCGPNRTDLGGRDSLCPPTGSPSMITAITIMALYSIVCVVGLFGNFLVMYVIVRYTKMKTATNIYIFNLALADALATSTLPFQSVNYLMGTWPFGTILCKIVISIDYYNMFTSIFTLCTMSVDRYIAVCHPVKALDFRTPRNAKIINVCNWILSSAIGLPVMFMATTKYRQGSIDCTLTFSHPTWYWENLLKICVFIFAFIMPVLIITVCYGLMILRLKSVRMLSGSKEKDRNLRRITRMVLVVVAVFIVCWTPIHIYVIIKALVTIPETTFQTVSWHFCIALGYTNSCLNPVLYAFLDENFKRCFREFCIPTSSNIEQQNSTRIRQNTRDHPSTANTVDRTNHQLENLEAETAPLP", "assay": "Opioid receptor binding, [3H]DAMGO (μ)"}, "guinea pig μ receptors": {"system": "guinea pig μ receptors", "conditions": "cyclazocine series; μ printed as ∥; cited from earlier work"}, "κ opioid receptors": {"system": "κ opioid receptors", "conditions": "cyclazocine series; cited from earlier work"}, "mice": {"system": "mice", "conditions": "cited from earlier work; for duration of action: 1 mg/kg ip in mice"}, "human κ opioid receptor": {"target": "T4, human κ opioid receptor (Homo sapiens, UniProt P41145)", "T4 construct": "expressed in transfected cells", "T4 sequence (P41145 whole entry)": "as the sequence (P41145 whole entry) above", "assay": "[35S]GTPγS binding assay, κ", "format": "biochemical", "conditions": "agonist/antagonist character; antagonism vs 100 nM U50,488"}, "human μ opioid receptor": {"target": "T5, human μ opioid receptor (Homo sapiens, UniProt P35372)", "T5 construct": "expressed in transfected cells", "T5 sequence (P35372 whole entry)": "as the sequence (P35372 whole entry) above", "assay": "[35S]GTPγS binding assay, μ", "format": "biochemical", "conditions": "agonist/antagonist character; antagonism vs 200 nM DAMGO"}, "[4]": {"conditions": "read-out: Ki [3H]Naltrindole (δ), CHO cell membranes, 0.2 nM [3H]naltrindole, mean±SEM"}, "[5]": {"conditions": "CHO cell membranes, 1 nM [3H]U69,593, mean±SEM, read-out: Ki [3H]U69,593 (K)"}, "[6]": {"conditions": "read-out: Ki [3H]DAMGO (μ), CHO cell membranes, […] [3H]DAMGO, mean±SEM"}},
  "note": "Read-outs that look alike come from different tables or passages of the source.",
  "data": [
    {"smiles": "CC1C2Cc3ccc(C(N)=O)c(N)c3C1(C)CCN2CC1CC1", "note": "(mixture of isomers) [Example 6, Cis-(±)-3-(cyclopropylmethyl)-1,2,3,4,5,6-hexahydro-6,11-dimethyl-7-amino-2,6-methano-3-benzazocine-8-carboxamide]", "values": [
      {"measurement": "Ki", "setting": "[1]", "result": "35 ± 0.036", "unit": "nM"},
      {"measurement": "Ki", "setting": "[2]", "result": "0.7 ± 0.036", "unit": "nM"},
      {"measurement": "Ki", "setting": "[3]", "result": "0.55 ± 0.029", "unit": "nM"}
    ]},
    {"smiles": "C[C@H]1C2Cc3cc(N)c(C(N)=O)cc3[C@@]1(C)CCN2CC1CC1", "note": "(racemic) [Example 7, Cis-(±)-3-(cyclopropylmethyl)-1,2,3,4,5,6-hexahydro-6,11-dimethyl-9-amino-2,6-methano-3-benzazocine-8-carboxamide]", "values": [
      {"measurement": "Ki", "setting": "[1]", "result": "2000 ± 12", "unit": "nM"},
      {"measurement": "Ki", "setting": "[2]", "result": "32 ± 1.7", "unit": "nM"},
      {"measurement": "Ki", "setting": "[3]", "result": "88 ± 5.2", "unit": "nM"}
    ]},
    {"smiles": "C[C@H]1C2Cc3ccc(C(N)=O)cc3[C@@]1(C)CCN2CC1CC1", "note": "[Example 8-CAC, 8-carboxamidocyclazocine]", "values": [
      {"measurement": "affinity for μ opioid receptors", "setting": "guinea pig μ receptors", "result": "high affinity"},
      {"measurement": "affinity for κ opioid receptors", "setting": "κ opioid receptors", "result": "high affinity"},
      {"measurement": "duration of action", "setting": "mice", "result": 15, "unit": "h"},
      {"measurement": "antinociception activity", "setting": "mice; studies in vivo", "result": "high antinociception activity"}
    ]},
    {"smiles": "C[C@H]1C2Cc3ccc4c(=O)[nH]cnc4c3[C@@]1(C)CCN2CC1CC1", "note": "[Example 8]", "values": [
      {"measurement": "Ki", "setting": "[1]; [4]", "result": "2000 ± 49", "unit": "nM"},
      {"measurement": "Ki", "setting": "[2]; [5]", "result": "160 ± 7.1", "unit": "nM"},
      {"measurement": "Ki", "setting": "[3]; [6]", "result": "270 ± 33", "unit": "nM"}
    ]},
    {"smiles": "C[C@H]1C2Cc3cc4nc[nH]c(=O)c4cc3[C@@]1(C)CCN2CC1CC1", "note": "[Example 9]", "values": [
      {"measurement": "Ki", "setting": "[1]; [4]", "result": "780 ± 32", "unit": "nM"},
      {"measurement": "Ki", "setting": "[2]; [5]", "result": "12 ± 0.65", "unit": "nM"},
      {"measurement": "Ki", "setting": "[3]; [6]", "result": "170 ± 6.7", "unit": "nM"}
    ]},
    {"smiles": "CC1C2Cc3ccc4c(N)ncnc4c3C1(C)CCN2CC1CC1", "note": "(centres unmarked) [Example 10]", "values": [
      {"measurement": "Ki", "setting": "[1]", "result": "120 ± 8.5", "unit": "nM"},
      {"measurement": "GTPγS data, KOR", "setting": "human κ opioid receptor", "result": "MOR and KOR antagonist"},
      {"measurement": "Ki", "setting": "[2]; [5]", "result": "1 ± 0.071", "unit": "nM"},
      {"measurement": "GTPγS data, MOR", "setting": "human μ opioid receptor", "result": "MOR and KOR antagonist"},
      {"measurement": "Ki", "setting": "[3]", "result": "0.55 ± 0.018", "unit": "nM"}
    ]},
    {"smiles": "CC1C2Cc3cc4ncnc(N)c4cc3C1(C)CCN2CC1CC1", "note": "(centres unmarked) [Example 11]", "values": [
      {"measurement": "inhibition at 10 µM", "setting": "[1]; read-out: inh. of [3H]Naltrindole (δ) binding, at 10 μM", "result": 47, "unit": "%"},
      {"measurement": "Ki", "setting": "[2]; [5]", "result": "560 ± 23", "unit": "nM"},
      {"measurement": "Ki", "setting": "[3]", "result": "890 ± 39", "unit": "nM"}
    ]},
    {"smiles": "CC1C2Cc3ccc4c(NCc5ccccc5)ncnc4c3C1(C)CCN2CC1CC1", "note": "(centres unmarked) [Example 12]", "values": [
      {"measurement": "Ki", "setting": "[1]", "result": "1500 ± 68", "unit": "nM"},
      {"measurement": "Ki", "setting": "[2]; [5]", "result": "240 ± 1.8", "unit": "nM"},
      {"measurement": "Ki", "setting": "[3]", "result": "44 ± 0.76", "unit": "nM"}
    ]},
    {"smiles": "CC1C2Cc3cc4ncnc(NCc5ccccc5)c4cc3C1(C)CCN2CC1CC1", "note": "(centres unmarked) [Example 13]", "values": [
      {"measurement": "Ki", "setting": "[1]", "result": "1000 ± 37", "unit": "nM"},
      {"measurement": "Ki", "setting": "[2]; [5]", "result": "48 ± 2.3", "unit": "nM"},
      {"measurement": "Ki", "setting": "[3]", "result": "88 ± 7.2", "unit": "nM"}
    ]},
    {"smiles": "CC1C2Cc3ccc4c(NCCc5ccc(-c6ccccc6)cc5)ncnc4c3C1(C)CCN2CC1CC1", "note": "(centres unmarked) [Example 14]", "values": [
      {"measurement": "Ki", "setting": "[1]", "result": "52 ± 2.6", "unit": "nM"},
      {"measurement": "Ki", "setting": "[2]; [5]", "result": "8.6 ± 1.5", "unit": "nM"},
      {"measurement": "Ki", "setting": "[3]", "result": "6.9 ± 0.33", "unit": "nM"}
    ]},
    {"smiles": "CC1C2Cc3cc4ncnc(NCCc5ccc(-c6ccccc6)cc5)c4cc3C1(C)CCN2CC1CC1", "note": "(centres unmarked) [Example 15]", "values": [
      {"measurement": "Ki", "setting": "[1]", "result": "410 ± 61", "unit": "nM"},
      {"measurement": "Ki", "setting": "[2]; [5]", "result": "140 ± 4.4", "unit": "nM"},
      {"measurement": "Ki", "setting": "[3]", "result": "28 ± 1.9", "unit": "nM"}
    ]},
    {"smiles": "C[C@H]1C2Cc3ccc4[nH]nnc4c3[C@@]1(C)CCN2CC1CC1", "note": "[Example 29]", "values": [
      {"measurement": "Ki", "setting": "[1]; [4]", "result": "46 ± 2.6", "unit": "nM"},
      {"measurement": "GTPγS data, KOR", "setting": "human κ opioid receptor", "result": "agonist"},
      {"measurement": "Ki", "setting": "[2]; [5]", "result": "0.23 ± 0.009", "unit": "nM"},
      {"measurement": "GTPγS data, MOR", "setting": "human μ opioid receptor", "result": "antagonist"},
      {"measurement": "Ki", "setting": "[3]; [6]", "result": "1.4 ± 0.043", "unit": "nM"}
    ]},
    {"smiles": "C[C@H]1C2Cc3cc4nn[nH]c4cc3[C@@]1(C)CCN2CC1CC1", "note": "[Example 30]", "values": [
      {"measurement": "Ki", "setting": "[1]; [4]", "result": "51 ± 7.8", "unit": "nM"},
      {"measurement": "GTPγS data, KOR", "setting": "human κ opioid receptor", "result": "agonist"},
      {"measurement": "Ki", "setting": "[2]; [5]", "result": "0.81 ± 0.19", "unit": "nM"},
      {"measurement": "GTPγS data, MOR", "setting": "human μ opioid receptor", "result": "antagonist"},
      {"measurement": "Ki", "setting": "[3]; [6]", "result": "10 ± 1", "unit": "nM"}
    ]},
    {"smiles": "CC1C2Cc3cc4nc[nH]c4cc3C1(C)CCN2CC1CC1", "note": "(centres unmarked) [Example 34]", "values": [
      {"measurement": "Ki", "setting": "[1]", "result": "5.1 ± 0.65", "unit": "nM"},
      {"measurement": "Ki", "setting": "[2]; [5]", "result": "0.063 ± 0.0016", "unit": "nM"},
      {"measurement": "GTPγS data, MOR", "setting": "human μ opioid receptor", "result": "MOR weak agonist/antagonist, KOR"},
      {"measurement": "Ki", "setting": "[3]", "result": "0.31 ± 0.05", "unit": "nM"}
    ]},
    {"smiles": "Cc1nc2cc3c(cc2[nH]1)CC1C(C)C3(C)CCN1CC1CC1", "note": "(centres unmarked) [Example 35]", "values": [
      {"measurement": "Ki", "setting": "[1]", "result": "18 ± 0.9", "unit": "nM"},
      {"measurement": "GTPγS data, KOR", "setting": "human κ opioid receptor", "result": "agonist"},
      {"measurement": "Ki", "setting": "[2]; [5]", "result": "0.05 ± 0.002", "unit": "nM"},
      {"measurement": "GTPγS data, MOR", "setting": "human μ opioid receptor", "result": "MOR agonist/weak antagonist; KOR"},
      {"measurement": "Ki", "setting": "[3]", "result": "0.77 ± 0.051", "unit": "nM"}
    ]},
    {"smiles": "CC1C2Cc3cc4[nH]c(=O)[nH]c4cc3C1(C)CCN2CC1CC1", "note": "(centres unmarked) [Example 36]", "values": [
      {"measurement": "Ki", "setting": "[1]", "result": "730 ± 8.3", "unit": "nM"},
      {"measurement": "Ki", "setting": "[2]; [5]", "result": "12 ± 1.3", "unit": "nM"},
      {"measurement": "Ki", "setting": "[3]", "result": "60 ± 7.9", "unit": "nM"}
    ]},
    {"smiles": "C[C@H]1C2Cc3ccc4c(N)onc4c3[C@@]1(C)CCN2CC1CC1", "note": "[Example 43]", "values": [
      {"measurement": "Ki", "setting": "[1]", "result": "99 ± 10", "unit": "nM"},
      {"measurement": "Ki", "setting": "[2]; [5]", "result": "0.65 ± 0.005", "unit": "nM"},
      {"measurement": "Ki", "setting": "[3]", "result": "0.75 ± 0.038", "unit": "nM"}
    ]},
    {"smiles": "C[C@H]1[C@H]2Cc3ccc(O)cc3[C@]1(C)CCN2CC1CC1", "note": "[cyclazocine]", "values": [
      {"measurement": "duration of action", "setting": "mice", "result": 2, "unit": "h"}
    ]}
  ]
}
